Laboratory results taken from ChEMBL document CHEMBL5725235, “3-cyclohexenyl and cyclohexyl substituted indole and indazole compounds as RORgammaT inhibitors and uses thereof” (2016).

Assay: TR-FRET Assay: To identify novel antagonists of RORgammaT, an assay was developed which employs the interaction of RORgammaT with its co-activator peptide SRC1_2. This peptide mimics the recruitment of co-activators to RORgammaT through its interaction with the LXXLL (SEQ ID NO:1) (e.g., NR box) motifs (Xie et al., J. Immunol. 175: 3800-09, 2005; Kurebayashi et al., Biochem. Biophys. Res. Commun. 315: 919-27, 2004; Jin et al., Mol. Endocrinology 24:923-29, 2010). The RORγ-Ligand Binding Domain TR-FRET Assay was run according to the following protocol.HIS-tagged RORγ-LBD protein was expressed in SF9 cells using a baculovirus expression system. The RORγ-LBD protein was purified by […] chromatography. Separately, SF9 cells not expressing any recombinant protein were lysed and the lysate was added to the purified RORγ-LBD at 0.25 ul lysate (from 10,000 SF9 cells)/nM purified protein. The mixture was then diluted in assay buffer (50 mM Tris pH 7.0, 50 mM KCl, 1 mM EDTA, 0.1 mM DTT) to obtain RORγ-LBD final concentration of 3 nM in 384-well assay plate. Compounds to be tested were injected to the assay plate using Acoustic Droplet Ejection technology by Echo 550 liquid handler (Labcyte, Calif.). A stock of biotinylated-LXXLL peptide from coactivator SRC1 (Biotin-[…]) (SEQ ID NO:2) was prepared in assay buffer and added to each well (100 nM final concentration). […]

IC50 [nM]	SMILES
343	CC1(C)CC(c2nn(C(=O)c3c(Cl)cccc3C(F)(F)F)c3cccc(F)c23)=CC[C@H]1C(=O)O
21	CC1(C(=O)O)CC=C(c2nn(C(=O)c3c(Cl)cccc3C(F)(F)F)c3cccc(F)c23)CC1 (configuration not stated)
